System: Snrpn promoter (IG-DMR GFP/Pat reporter)
Experiment: Ex vivo activation of the silenced IG-DMR-Snrpn-GFP reporter in mouse tail fibroblasts
Type: cell-based
Description: FIGS. 7A-7H depict targeted ex vivo and in vivo DNA methylation editing by dCas9-Tet1 to activate a silenced GFP reporter. FIG. 7A provides a schematic diagram illustrating the experimental procedure for the ex vivo activation of a silenced GFP reporter in mouse fibroblast cells. Mouse tail fibroblast cells were derived from a genetically modified mouse line carrying a paternal IG-DMR-Snrpn-GFP allele (IG-DMRGFP/Pat) in the Dlk1-Dio3 locus. The IG-DMR-Snrpn promoter on the paternal allele is hypermethylated so that the GFP reporter is constitutively silenced. The cultured fibroblast cells were infected with lentiviral vectors expressing dCas9-Tet1 and gRNAs to demethylate the Snrpn promoter and activate the GFP reporter. Cells are subject to imaging and FACS analysis. […] Stained in red for Cherry, green for GFP and DAPI for nuclei. Scale bar: 100 um. Note that in order to turn on the Snrpn-GFP methylation reporter, both dCas9-Tet1 and target gRNA lentiviral vectors have to be transduced into the same cells. […] Brains were sliced and analyzed by immunohistochemical approaches. […] FIGS. 7G-7H provide quantification of the percentage of IG-DMR^GFP/Pat cells with GFP activation in Cherry (gRNAs) positive cells in the in vivo lentiviral delivery experiment in the brain (FIG. 7G) and in the skin epidemis (FIG. 7H). […]

Row | Substance | GFP reporter activation in Cherry (gRNA) positive fibroblasts (with Snrpn target gRNAs, lentiviral transduction) | GFP reporter activation in Cherry (gRNA) positive fibroblasts (with a sc gRNA)
1 | dC-dT: dCas9 fused to an inactive mutant form of Tet1 (H1672Y, D1674A), SEQ ID NO: 160 | cannot turn on GFP reporter expression | 
2 | dCas9-Tet1: catalytically inactive Cas9 (dCas9) fused through NLS to the Tet1 catalytic domain, SEQ ID NO: 159; lentivirally expressed with gRNAs |  | cannot turn on GFP reporter expression

From US12060588B2, “Methods of editing DNA methylation” (Whitehead Institute for Biomedical Research, priority 2016, dated 2024)
